Test results: patent US20230234941A1, “Salts of Compound and Pharmaceutical Compositions Containing the Same” (Shenzhen Forward Pharmaceuticals Co., Limited., priority 2020, published 2023)
Values after ≈ are worked out from the molar mass of the structure shown. “Also recorded” adds a separate entry of the source. Read-outs that look alike come from different tables or passages of the source.

What was measured:
Assay type in all cases: physicochemical
[1] = Chemical and physical stability of the salts at the end of the preparation
Source text: It is crucial for drug development whether the salts obtained as above have chemical and physical stability at the end of the preparation. The chemical and physical stability of the salts at the end of the preparation includes: […]

[2] = Solid storage stability test; conditions: for Original morphology / Original purity: original solid before storage; for chemical and physical stability after storage (summary): solid/25° C./60% RH/open/1 week and/or solid/60° C./closed container/1 week
Description: Each amorphous salt solid was weighed (two 2 mg samples were weighed for purity testing after solid storage stability study, and one 10 mg sample was weighed for XRPD testing after solid storage stability study) and placed in a glass vial. In a 25° C./60% RH solid storage stability test, the amorphous salt solid was placed in a 25° C./60% RH constant temperature and humidity chamber, and placed in the dark for 1 week (i.e. “solid/25° C./60% RH/open/1 week”), and in a 60° C. solid storage stability test, the amorphous salt solid was sealed in an oven at 60° C. and heated for 1 week in the dark (i.e. “solid/60° C./closed container/l week”). Then the sample was taken out for purity testing, crystal form detection and appearance observation, respectively.

[3] = Solid solubility test (2 h and 24 h); conditions: for XRPD measured at 2 h: state of sample / solid fraction; for solubility at 2 h: 37 °C, thermodynamic from solid
Description: samples were weighed for each amorphous salt solid (equivalent to 20 mg of free base), and 10 mL of the following solvents were respectively added: 0.1N HCl solution (pH 1.0), 50 mM phosphate buffer (pH 4.5), FeSSIF-V1 (pH 5.0), FaSSIF-V1 (pH 6.5) and SGF (pH 2.0), […] The suspension was then centrifuged at 37° C., the supernatant was measured for solubility by HPLC, and the solid fraction was measured for XRPD. The target solubility was at least 2 mg (based on free base)/mL.

[4] = listed as amorphous 1 eq. besylate salt
[5] = Test BS1: solid/25° C./60% RH/open/1 week
[6] = solid/60° C./closed container/1 week (Test BS1)
[7] = FaSSIF-V1 (pH 6.5) (Test ES4, partly printed ES1)
[8] = FaSSIF-V1 (pH 6.5) (Test ES4, partly printed ES1), 37° C., based on free base
[9] = Test ES1: 0.1N HCl solution (pH 1.0)
[10] = Test ES1: 0.1N HCl solution (pH 1.0), 37° C., based on free base
[11] = Test ES2: 50 mM phosphate buffer (pH 4.5)
[12] = Test ES2: 50 mM phosphate buffer (pH 4.5), 37° C., based on free base
[13] = Test ES3: FeSSIF-V1 (pH 5.0), 37° C., based on free base
[14] = Test ES5: SGF (pH 2.0), 37° C., based on free base
[15] = listed as amorphous 2 eq. besylate salt
[16] = listed as amorphous 1 eq. esylate salt
[17] = listed as amorphous 1 eq. maleate salt

SMILES	Purity [2, 5] [%]	Original morphology [2]	Original purity [2] [%]	Purity [2, 6] [%]	pH measured at 2 h [3, 7]	Solubility measured at 2 h [3, 8] [µg/mL]	XRPD measured at 2 h [3, 7]	pH measured at 2 h [3, 9]	Solubility measured at 2 h [3, 10] [µg/mL]	XRPD measured at 2 h [3, 9]	pH measured at 2 h [3, 11]	Solubility measured at 2 h [3, 12] [µg/mL]	XRPD measured at 2 h [3, 11]	pH measured at 2 h ([3]; Test ES3: FeSSIF-V1 (pH 5.0))	Solubility measured at 2 h [3, 13] [µg/mL]	XRPD measured at 2 h ([3]; Test ES3: FeSSIF-V1 (pH 5.0))	pH measured at 2 h ([3]; Test ES5: SGF (pH 2.0))	Solubility measured at 2 h [3, 14] [µg/mL]	XRPD measured at 2 h ([3]; Test ES5: SGF (pH 2.0))	also measured
C=CC(=O)Nc1cc(Nc2ncnc(-c3cn(C)c4ccccc34)n2)c(OC)cc1N(C)CCN(C)C [Example 6]	98.2	amorphous	99.7	99.6	(6.5)	>2000	clear solution	(0.7)	>2000	clear solution	(4.5)	>2000	clear solution	(4.8)	>2000	clear solution	(2.1)	>2000	clear solution	chemical and physical stability at the end of the preparation ([1]; listed as 1 eq. besylate salt): chemically and physically stable; chemical and physical stability at the end of the preparation [1, 4]: chemically and physically stable; decrease in purity ([2]; solid/25° C./60% RH/open/1 week): about 2%; chemical and physical stability after storage (summary) ([2]; listed as 1 eq. besylate salt): chemically unstable; chemical and physical stability after storage (summary) [2, 4]: chemically unstable; physical and chemical stability under storage (in words) ([2]; solid/60° C./closed container/1 week, listed as amorphous 1 eq. besylate salt): good physical and chemical stability
C=CC(=O)Nc1cc(Nc2ncnc(-c3cn(C)c4ccccc34)n2)c(OC)cc1N(C)CCN(C)C [Example 7]	99.6	amorphous	99.6	99.4	(6.1)	>2000	clear solution	(0.8)	1800 (≈ 3.6 mM)	–	(4.2)	>2000	clear solution	L(4.8)	>2000	clear solution	(1.7)	>2000	clear solution	chemical and physical stability at the end of the preparation ([1]; listed as 2 eq. besylate salt): chemically and physically stable; chemical and physical stability at the end of the preparation [1, 15]: chemically and physically stable; chemical and physical stability after storage (summary) ([2]; listed as 2 eq. besylate salt): physically unstable; chemical and physical stability after storage (summary) [2, 15]: physically unstable; physical and chemical stability under storage (in words) ([2]; solid/25° C./60% RH/open/1 week, listed as amorphous 2 eq. besylate salt): slight color change and showed significant hygroscopicity (caking and fusion to a glassy state); physical and chemical stability under storage (in words) ([2]; solid/60° C./closed container/1 week, listed as amorphous 2 eq. besylate salt): good physical and chemical stability; solubility at 2 h ([3]; 0.1N HCl solution, pH 1, simulated gastric fluid, Test ES1: 0.1N HCl solution (pH 1.0), 37° C., based on free base, read-out: Solubility measured at 2 h): < 2000 µg/mL; solubility at 2 h ([3]; not achieved in some solvents / greater in various solvents, read-out: solubility in solvents that mimic physiological conditions): < 2000 µg/mL
C=CC(=O)Nc1cc(Nc2ncnc(-c3cn(C)c4ccccc34)n2)c(OC)cc1N(C)CCN(C)C [Example 8]	99.9	amorphous	99.8	99.8	(6.4)	>2000	clear solution	(0.8)	>2000	clear solution	(4.4)	>2000	clear solution	(4.8)	>2000	clear solution	(1.9)	>2000	clear solution	chemical and physical stability at the end of the preparation ([1]; listed as 1 eq. esylate salt): chemically and physically stable; chemical and physical stability at the end of the preparation [1, 16]: chemically and physically stable; chemical and physical stability after storage (summary) ([2]; listed as 1 eq. esylate salt): physically unstable; chemical and physical stability after storage (summary) [2, 16]: physically unstable; physical and chemical stability under storage (in words) ([2]; solid/25° C./60% RH/open/1 week, listed as amorphous 1 eq. esylate salt): significant hygroscopicity (caking and fusion to a glassy state); physical and chemical stability under storage (in words) ([2]; solid/60° C./closed container/1 week, listed as amorphous 1 eq. esylate salt): good physical and chemical stability
C=CC(=O)Nc1cc(Nc2ncnc(-c3cn(C)c4ccccc34)n2)c(OC)cc1N(C)CCN(C)C [Example 9]	99.7	amorphous	99.8	98.2	(6.1)	>2000	clear solution	(0.8)	>2000	clear solution	(4.3)	>2000	clear solution	(4.8)	>2000	clear solution	(2.0)	–	clear solution	chemical and physical stability at the end of the preparation ([1]; listed as 1 eq. maleate salt): chemically and physically stable; chemical and physical stability at the end of the preparation [1, 17]: chemically and physically stable; chemical and physical stability after storage (summary) ([2]; listed as 1 eq. maleate salt): chemically unstable; also recorded: physically unstable; chemical and physical stability after storage (summary) [2, 17]: chemically unstable; also recorded: physically unstable; physical and chemical stability under storage (in words) ([2]; solid/25° C./60% RH/open/1 week, listed as amorphous 1 eq. maleate salt): slight color change and showed a certain hygroscopicity (agglomeration); decrease in purity ([2]; solid/60° C./closed container/1 week): about 2%; physical and chemical stability under storage (in words) ([2]; solid/60° C./closed container/1 week, listed as amorphous 1 eq. maleate salt): transformed from amorphous to a low crystallinity; solubility at 2 h ([3]; SGF, pH 2, simulated gastric fluid, Test ES5: SGF (pH 2.0), 37° C., based on free base, read-out: Solubility measured at 2 h): > 2000 µg/mL
